PubChem BioAssay AID1963835 (Molecular Pharmacology Branch, DTP, NCI, 2024)

System: 699152-130-R-J1-PDC complex spheroid viability
Test: Anticancer human tumor 699152-130-R-J1-PDC patient-derived pancreatic carcinoma cell line growth inhibition [POLQ]
Settings: for IC50: curve of first compound; for viability, T/C: stronger effect = lower value
How it was run: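 Complex spheroid viability model combining PDC tumour cells with endothelial (HUVEC) and MSC stromal cells. Novobiocin, ART-558 or RP6685 were tested singly and in combination with standard and investigational anticancer drugs. Each was titrated in half-log steps from near clinical Cmax, or from 10 microM where Cmax was unknown.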

[1] = second compound 0.0316 µM, first compound 0.0316 µM
[2] = second compound 0.0316 µM, first compound 0.1 µM
[3] = second compound 0.0316 µM, first compound 0.316 µM
[4] = second compound 0.0316 µM, first compound 1 µM
[5] = second compound 0.0316 µM, first compound 3.16 µM
[6] = second compound 0.0316 µM, first compound 10 µM
[7] = second compound 0.1 µM, first compound 0.0316 µM
[8] = second compound 0.1 µM, first compound 0.1 µM
[9] = second compound 0.1 µM, first compound 0.316 µM
[10] = second compound 0.1 µM, first compound 1 µM
[11] = second compound 0.1 µM, first compound 3.16 µM
[12] = second compound 0.1 µM, first compound 10 µM
[13] = second compound 0.316 µM, first compound 0.0316 µM
[14] = second compound 0.316 µM, first compound 0.1 µM
[15] = second compound 0.316 µM, first compound 0.316 µM
[16] = second compound 0.316 µM, first compound 1 µM
[17] = second compound 0.316 µM, first compound 3.16 µM
[18] = second compound 0.316 µM, first compound 10 µM
[19] = second compound 1 µM, first compound 0.0316 µM
[20] = second compound 1 µM, first compound 0.1 µM
[21] = second compound 1 µM, first compound 0.316 µM
[22] = second compound 1 µM, first compound 1 µM
[23] = second compound 1 µM, first compound 3.16 µM
[24] = second compound 1 µM, first compound 10 µM
[25] = second compound 3.16 µM, first compound 0.0316 µM
[26] = second compound 3.16 µM, first compound 0.1 µM
[27] = second compound 3.16 µM, first compound 0.316 µM
[28] = second compound 3.16 µM, first compound 1 µM
[29] = second compound 3.16 µM, first compound 3.16 µM
[30] = second compound 3.16 µM, first compound 10 µM
[31] = second compound 10 µM, first compound 0.0316 µM
[32] = second compound 10 µM, first compound 0.1 µM
[33] = second compound 10 µM, first compound 0.316 µM
[34] = second compound 10 µM, first compound 1 µM
[35] = second compound 10 µM, first compound 3.16 µM
[36] = second compound 10 µM, first compound 10 µM
[37] = second compound 0.0316 µM, first compound 0.00316 µM
[38] = second compound 0.0316 µM, first compound 0.01 µM
[39] = second compound 0.1 µM, first compound 0.00316 µM
[40] = second compound 0.1 µM, first compound 0.01 µM
[41] = second compound 0.316 µM, first compound 0.00316 µM
[42] = second compound 0.316 µM, first compound 0.01 µM
[43] = second compound 1 µM, first compound 0.00316 µM
[44] = second compound 1 µM, first compound 0.01 µM
[45] = second compound 3.16 µM, first compound 0.00316 µM
[46] = second compound 3.16 µM, first compound 0.01 µM
[47] = second compound 10 µM, first compound 0.00316 µM
[48] = second compound 10 µM, first compound 0.01 µM
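Also: spheroids exposed to agents for 7 days before viability reading.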
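For viability, T/C in this document: percent of DMSO vehicle control viability so 100% = vehicle and 0% = no viable signal.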

Nc1ccn(C2OC(CO)C(O)C2(F)F)c(=O)n1 (stereo not drawn) + COC1C(OC(N)=O)C(O)C(Oc2ccc3c(O)c(NC(=O)c4ccc(O)c(CC=C(C)C)c4)c(=O)oc3c2C)OC1(C)C
IC50 (second compound 0.0316 µM): 202 nM | IC50 (second compound 0.1 µM): 262 nM | IC50 (second compound 0.316 µM): 376 nM | IC50 (second compound 1 µM): 264 nM | IC50 (second compound 3.16 µM): 475 nM | IC50 (second compound 10 µM): 765 nM | viability, T/C [1]: 68.1% | viability, T/C [2]: 52.2% | viability, T/C [3]: 42.9% | viability, T/C [4]: 48.3% | viability, T/C [5]: 39% | viability, T/C [6]: 31.2% | viability, T/C [7]: 73.5% | viability, T/C [8]: 56.1% | viability, T/C [9]: 48.7% | viability, T/C [10]: 44.8% | viability, T/C [11]: 35.4% | viability, T/C [12]: 34.3% | viability, T/C [13]: 64.4% | viability, T/C [14]: 56.6% | viability, T/C [15]: 49.7% | viability, T/C [16]: 44.4% | viability, T/C [17]: 46.4% | viability, T/C [18]: 35.4% | viability, T/C [19]: 70% | viability, T/C [20]: 51.5% | viability, T/C [21]: 53.3% | viability, T/C [22]: 45.1% | viability, T/C [23]: 43.2% | viability, T/C [24]: 40.1% | viability, T/C [25]: 61.7% | viability, T/C [26]: 55.6% | viability, T/C [27]: 51.4% | viability, T/C [28]: 51.5% | viability, T/C [29]: 37.1% | viability, T/C [30]: 40.8% | viability, T/C [31]: 72.1% | viability, T/C [32]: 56.7% | viability, T/C [33]: 54.8% | viability, T/C [34]: 51.3% | viability, T/C [35]: 44.1% | viability, T/C [36]: 38%

COc1cccc2c1C(=O)c1c(O)c3c(c(O)c1C2=O)CC(O)(C(=O)CO)CC3OC1CC(N)C(O)C(C)O1 (stereo not drawn) + Cc1cccc(N(C)C(=O)C2C(O)CCN2c2nc(C)cc(C(F)(F)F)c2C#N)c1
IC50 (second compound 0.0316 µM): 222 nM | IC50 (second compound 0.1 µM): 244 nM | IC50 (second compound 0.316 µM): 279 nM | IC50 (second compound 1 µM): 276 nM | IC50 (second compound 3.16 µM): 275 nM | IC50 (second compound 10 µM): 257 nM | viability, T/C [1]: 102% | viability, T/C [2]: 59% | viability, T/C [3]: 47.5% | viability, T/C [4]: 34% | viability, T/C [5]: 3.59% | viability, T/C [6]: 10.4% | viability, T/C [7]: 81.1% | viability, T/C [8]: 61.3% | viability, T/C [9]: 47% | viability, T/C [10]: 31.3% | viability, T/C [11]: 3.36% | viability, T/C [12]: 8.95% | viability, T/C [13]: 85.7% | viability, T/C [14]: 66% | viability, T/C [15]: 49.5% | viability, T/C [16]: 29.6% | viability, T/C [17]: 3.68% | viability, T/C [18]: 10.9% | viability, T/C [19]: 81.9% | viability, T/C [20]: 68.5% | viability, T/C [21]: 46.8% | viability, T/C [22]: 28.7% | viability, T/C [23]: 4.78% | viability, T/C [24]: 12.1% | viability, T/C [25]: 85% | viability, T/C [26]: 60.7% | viability, T/C [27]: 55.2% | viability, T/C [28]: 20% | viability, T/C [29]: 6.82% | viability, T/C [30]: 10.3% | viability, T/C [31]: 84.4% | viability, T/C [32]: 60.2% | viability, T/C [33]: 53.2% | viability, T/C [34]: 12% | viability, T/C [35]: 7.55% | viability, T/C [36]: 10.8%

COc1cccc(OCCCN)c1-c1cc(Nc2cnc(C#N)cn2)n[nH]1 + Cc1cccc(N(C)C(=O)C2C(O)CCN2c2nc(C)cc(C(F)(F)F)c2C#N)c1
IC50 (second compound 0.0316 µM): > 1000 nM | IC50 (second compound 0.1 µM): > 1000 nM | IC50 (second compound 0.316 µM): > 1000 nM | IC50 (second compound 1 µM): > 1000 nM | IC50 (second compound 3.16 µM): > 1000 nM | IC50 (second compound 10 µM): > 1000 nM | viability, T/C [37]: 93% | viability, T/C [38]: 75.7% | viability, T/C [1]: 64.7% | viability, T/C [2]: 63.1% | viability, T/C [3]: 50.8% | viability, T/C [4]: 51.2% | viability, T/C [39]: 89.4% | viability, T/C [40]: 85.7% | viability, T/C [7]: 67.4% | viability, T/C [8]: 58.1% | viability, T/C [9]: 55.5% | viability, T/C [10]: 49.1% | viability, T/C [41]: 100% | viability, T/C [42]: 91.3% | viability, T/C [13]: 61.5% | viability, T/C [14]: 59.6% | viability, T/C [15]: 54.5% | viability, T/C [16]: 46.7% | viability, T/C [43]: 92.8% | viability, T/C [44]: 90.7% | viability, T/C [19]: 61.2% | viability, T/C [20]: 54.1% | viability, T/C [21]: 52.8% | viability, T/C [22]: 48.7% | viability, T/C [45]: 86.3% | viability, T/C [46]: 86.4% | viability, T/C [25]: 67.2% | viability, T/C [26]: 56.3% | viability, T/C [27]: 51.2% | viability, T/C [28]: 57.3% | viability, T/C [47]: 98.1% | viability, T/C [48]: 88% | viability, T/C [31]: 61.6% | viability, T/C [32]: 59% | viability, T/C [33]: 58.4% | viability, T/C [34]: 56.1%

Cn1ncnc1[C@H]1c2n[nH]c(=O)c3cc(F)cc(c23)N[C@@H]1c1ccc(F)cc1 + Nc1ccc(C#CCN(C(=O)Cc2ncc(C(F)(F)F)cc2C(F)(F)F)c2ccc(F)cc2)nn1
IC50 (second compound 0.0316 µM): > 100 nM | IC50 (second compound 0.1 µM): > 100 nM | IC50 (second compound 0.316 µM): > 100 nM | IC50 (second compound 1 µM): > 100 nM | IC50 (second compound 3.16 µM): > 100 nM | IC50 (second compound 10 µM): > 100 nM | viability, T/C (second compound 0.0316 µM, first compound 0.000316 µM): 102% | viability, T/C (second compound 0.0316 µM, first compound 0.001 µM): 86.8% | viability, T/C [37]: 89.6% | viability, T/C [38]: 97.1% | viability, T/C [1]: 87% | viability, T/C [2]: 82.2% | viability, T/C (second compound 0.1 µM, first compound 0.000316 µM): 106% | viability, T/C (second compound 0.1 µM, first compound 0.001 µM): 89.1% | viability, T/C [39]: 87.5% | viability, T/C [40]: 101% | viability, T/C [7]: 96% | viability, T/C [8]: 82.8% | viability, T/C (second compound 0.316 µM, first compound 0.000316 µM): 102% | viability, T/C (second compound 0.316 µM, first compound 0.001 µM): 91.6% | viability, T/C [41]: 103% | viability, T/C [42]: 85.4% | viability, T/C [13]: 92.6% | viability, T/C [14]: 77.5% | viability, T/C (second compound 1 µM, first compound 0.000316 µM): 102% | viability, T/C (second compound 1 µM, first compound 0.001 µM): 102% | viability, T/C [43]: 89.4% | viability, T/C [44]: 98.8% | viability, T/C [19]: 104% | viability, T/C [20]: 76.5% | viability, T/C (second compound 3.16 µM, first compound 0.000316 µM): 90.7% | viability, T/C (second compound 3.16 µM, first compound 0.001 µM): 98% | viability, T/C [45]: 105% | viability, T/C [46]: 94.7% | viability, T/C [25]: 91.7% | viability, T/C [26]: 89.5% | viability, T/C (second compound 10 µM, first compound 0.000316 µM): 103% | viability, T/C (second compound 10 µM, first compound 0.001 µM): 106% | viability, T/C [47]: 108% | viability, T/C [48]: 95.2% | viability, T/C [31]: 101% | viability, T/C [32]: 99.6%
